Measured values as given in patent publication US8598365B2, “Herbicides” (Syngenta Limited, priority 2007, dated 2013).

Key:
Test in all cases: Example B post-emergence herbicidal activity
Assay type in all cases: in vivo
Avena fatua (AVEFA) = settings: 312 h, evaluated after 13 days, read-out: Post-emergence activity AVEFA (100=total damage to plant; 0=no damage to plant); for pest or weed control at 250 g/ha: rate 250 g/ha
Description: (§1) Seeds of a variety of test species were sown in standard soil in pots. After cultivation for one day (pre-emergence) or after 8 days cultivation (post-emergence) under controlled conditions in a glasshouse (at 24/16° C., day/night; 14 hours light; 65% humidity), the plants were sprayed with an aqueous spray solution derived from the formulation of the technical active ingredient in acetone/water (50:50) solution containing 0.5% Tween 20 (polyoxyethelyene sorbitan monolaurate, CAS RN 9005-64-5).
(§2) The test plants were then grown in a glasshouse under controlled conditions in a glasshouse (at 24/16° C., day/night; 14 hours light; 65% humidity) and watered twice daily. After 13 days for pre and post-emergence, the test was evaluated (100=total damage to plant; 0=no damage to plant).
(§3) Alopecurus myosuroides (ALOMY), Avena fatua (AVEFA), Setaria faberi (SETFA), Echinochloa crus-galli (ECHCG), Solanum nigrum (SOLNI) and Amaranthus retoflexus (AMARE)

Setaria faberi (SETFA) = settings: 312 h, evaluated after 13 days, read-out: Post-emergence activity SETFA (100=total damage to plant; 0=no damage to plant); for pest or weed control at 250 g/ha: rate 250 g/ha
Description: as §1, §2, §3

[1] = tested on: Amaranthus retoflexus (AMARE); settings: Amaranthus retroflexus, 312 h, evaluated after 13 days, read-out: Post-emergence activity AMARE (100=total damage to plant; 0=no damage to plant); for pest or weed control at 250 g/ha: rate 250 g/ha
Description: as §1, §2, §3

[2] = tested on: Alopecurus myosuroides (ALOMY); settings: 312 h, evaluated after 13 days, read-out: Post-emergence activity ALOMY (100=total damage to plant; 0=no damage to plant); for pest or weed control at 250 g/ha: rate 250 g/ha
Description: as §1, §2, §3

[3] = tested on: Echinochloa crus-galli (ECHCG); settings: 312 h, evaluated after 13 days, read-out: Post-emergence activity ECHCG (100=total damage to plant; 0=no damage to plant); for pest or weed control at 250 g/ha: rate 250 g/ha
Description: as §1, §2, §3

Row | SMILES | pest or weed control at 250 g/ha (Avena fatua (AVEFA)) [%] | pest or weed control at 250 g/ha (Setaria faberi (SETFA)) [%] | pest or weed control at 250 g/ha [1] [%] | pest or weed control at 250 g/ha [2] [%] | pest or weed control at 250 g/ha [3] [%] | pest or weed control at 1000 g/ha (Avena fatua (AVEFA); rate 1000 g/ha) [%] | pest or weed control at 1000 g/ha (Setaria faberi (SETFA); rate 1000 g/ha) [%] | pest or weed control at 1000 g/ha ([1]; rate 1000 g/ha) [%] | pest or weed control at 1000 g/ha ([2]; rate 1000 g/ha) [%] | pest or weed control at 1000 g/ha ([3]; rate 1000 g/ha) [%]
1 | Cc1sc(-c2ccc(C=O)cc2)nc1C1=C(OC(=O)C(C)(C)C)[C@H]2CC[C@H](C2)C1=O [Compound P23] | 0 | 30 | 0 | 0 | 20 | – | – | – | – | –
2 | Cc1sc(-c2ccc(Cl)cc2C(F)(F)F)nc1C1C(=O)[C@@H]2CC[C@@H](C2)C1=O (stereo partly shown) [Compound T6] | 0 | 50 | 0 | 0 | 40 | – | – | – | – | –
3 | Cc1sc(-c2ccc(C(=O)O)cc2)cc1C1C(=O)C2CCC(C2)C1=O (stereo not shown) [Compound T24, 4-[4-(2,4-dioxobicyclo[3.2.1]oct-3-yl)-5-methylthiophen-2-yl]benzoic acid] | 0 | 30 | 0 | 0 | 0 | – | – | – | – | –
4 | COC(=O)c1ccc(-c2cc(C3C(=O)[C@@H]4CC[C@@H](C4)C3=O)c(C)s2)cc1 (stereo partly shown) [Compound T25, 4-[4-(2,4-dioxobicyclo[3.2.1]oct-3-yl)-5-methylthiophen-2-yl]benzoic acid methyl ester] | – | – | – | – | – | 0 | 30 | 0 | 20 | 10
5 | Cc1nc(-c2ccc(Cl)cc2)sc1C1C(=O)[C@@H]2CC[C@@H](C2)C1=O (stereo partly shown) [Compound T31] | 0 | 80 | 0 | 0 | 60 | – | – | – | – | –
6 | O=C1C(c2csc(-c3ccc(Cl)cc3)n2)C(=O)[C@H]2CC[C@@H]1C2 (stereo partly shown) [Compound T43, 3-[2-(4-chloro-phenyl)thiazol-4-yl]bicyclo[3.2.1]octane-2,4-dione] | 0 | 60 | 0 | 20 | 20 | – | – | – | – | –
7 | Cc1nc(-c2ccc(Cl)cc2F)sc1C1C(=O)[C@@H]2CC[C@@H](C2)C1=O (stereo partly shown) [Compound T47] | 0 | 90 | 0 | 30 | 80 | – | – | – | – | –
8 | Cc1nc(-c2ccc(Cl)c(Cl)c2)sc1C1C(=O)[C@@H]2CC[C@@H](C2)C1=O (stereo partly shown) [Compound T48] | 0 | 80 | 0 | 20 | 80 | – | – | – | – | –
9 | Cc1scnc1C1C(=O)[C@@H]2CC[C@@H](C2)C1=O (stereo partly shown) [Compound T52] | 0 | 0 | 0 | 0 | 0 | – | – | – | – | –
10 | Cc1sc(-c2ccsc2)nc1C1C(=O)[C@@H]2CC[C@@H](C2)C1=O (stereo partly shown) [Compound T60] | 0 | 60 | 0 | 0 | 50 | – | – | – | – | –
11 | Cc1sc(CC(C)C)nc1C1C(=O)[C@@H]2CC[C@@H](C2)C1=O (stereo partly shown) [Compound T61] | 0 | 20 | 0 | 0 | 0 | – | – | – | – | –
12 | Cc1sc(-c2cccc(Cl)c2Cl)nc1C1C(=O)[C@@H]2CC[C@@H](C2)C1=O (stereo partly shown) [Compound T62] | 0 | 60 | 0 | 0 | 0 | – | – | – | – | –
13 | Cc1sc(-c2ccccc2Cl)nc1C1C(=O)[C@@H]2CC[C@@H](C2)C1=O (stereo partly shown) [Compound T71] | 0 | 50 | 0 | 0 | 20 | – | – | – | – | –
14 | Cc1sc(-c2ccc(OC(C)C)c(Cl)c2)nc1C1C(=O)[C@@H]2CC[C@@H](C2)C1=O (stereo partly shown) [Compound T79] | 0 | 10 | 0 | 0 | 0 | – | – | – | – | –
15 | CCc1sc(-c2ccc(Cl)cc2)[n+]([O-])c1C1C(=O)[C@@H]2CC[C@@H](C2)C1=O (stereo partly shown) [Compound T89] | 0 | 80 | 0 | 0 | 30 | – | – | – | – | –
16 | Cc1oc(-c2ccc(Cl)cc2)nc1C1C(=O)[C@@H]2CC[C@@H](C2)C1=O (stereo partly shown) [Compound T90] | 0 | 40 | 0 | 0 | 30 | – | – | – | – | –
17 | CCc1sc(-c2ccccc2OC)nc1C1C(=O)[C@@H]2CC[C@@H](C2)C1=O (stereo partly shown) [Compound T95] | 30 | 80 | 0 | 80 | 70 | – | – | – | – | –
18 | CCc1sc(-c2ccsc2)nc1C1C(=O)[C@@H]2CC[C@@H](C2)C1=O (stereo partly shown) [Compound T97] | 0 | 70 | 0 | 0 | 70 | – | – | – | – | –
19 | CCc1sc(-c2cccc(Cl)c2Cl)nc1C1C(=O)[C@@H]2CC[C@@H](C2)C1=O (stereo partly shown) [Compound T98] | 0 | 70 | 0 | 20 | 70 | – | – | – | – | –
20 | CCc1sc(-c2ccc(C(=O)OC)cc2)nc1C1C(=O)[C@@H]2CC[C@@H](C2)C1=O (stereo partly shown) [Compound T107] | 0 | 0 | 0 | 0 | 60 | – | – | – | – | –
21 | CCOc1ccc(-c2nc(C3C(=O)[C@@H]4CC[C@@H](C4)C3=O)c(CC)s2)cc1F (stereo partly shown) [Compound T112] | 80 | 100 | 0 | 70 | 100 | – | – | – | – | –
22 | C=Cc1ccc(-c2nc(C3C(=O)[C@@H]4CC[C@@H](C4)C3=O)c(CC)s2)cc1 (stereo partly shown) [Compound T113] | 100 | 90 | 0 | 90 | 100 | – | – | – | – | –
23 | CCc1sc(-c2ccc(OC(C)C)c(Cl)c2)nc1C1C(=O)[C@@H]2CC[C@@H](C2)C1=O (stereo partly shown) [Compound T114] | 0 | 90 | 0 | 10 | 60 | – | – | – | – | –
24 | Cc1ncc(-c2ccc(Cl)cc2)cc1C1C(=O)[C@@H]2CC[C@@H](C2)C1=O (stereo partly shown) [Compound T118] | 80 | 80 | 0 | 60 | 60 | – | – | – | – | –
25 | Cc1sc(-c2ccc(Cl)cc2)nc1C1C(=O)[C@H]2C[C@@H](C1=O)C2(C)C (stereo partly shown) [Compound T120] | 60 | 90 | 0 | 40 | 100 | – | – | – | – | –
26 | Cc1sc(-c2ccc(Br)cc2)nc1C1C(=O)[C@H]2C[C@@H](C1=O)C2(C)C (stereo partly shown) [Compound T121] | 80 | 90 | 0 | 70 | 100 | – | – | – | – | –
